Data as given in patent publication US6071917A, “N-benzenesulphonyl-L-proline derivatives as bradykinin B2 antagonists” (Fournier Industrie Et Sante, priority 1996, dated 2000).
Structures can show the parent of a compound that is named as a salt.

Molecular target: T1, guinea-pig B2 receptor (Cavia porcellus, UniProt O70526)
T1 construct: Ileum segments are isolated from male guinea-pigs; tissue Iffa Credo, l'Arbresle, France (supplier of the animals); host or cells: ileum membranes of male Dunkin-Hartley guinea-pigs
T1 sequence (O70526 1-372): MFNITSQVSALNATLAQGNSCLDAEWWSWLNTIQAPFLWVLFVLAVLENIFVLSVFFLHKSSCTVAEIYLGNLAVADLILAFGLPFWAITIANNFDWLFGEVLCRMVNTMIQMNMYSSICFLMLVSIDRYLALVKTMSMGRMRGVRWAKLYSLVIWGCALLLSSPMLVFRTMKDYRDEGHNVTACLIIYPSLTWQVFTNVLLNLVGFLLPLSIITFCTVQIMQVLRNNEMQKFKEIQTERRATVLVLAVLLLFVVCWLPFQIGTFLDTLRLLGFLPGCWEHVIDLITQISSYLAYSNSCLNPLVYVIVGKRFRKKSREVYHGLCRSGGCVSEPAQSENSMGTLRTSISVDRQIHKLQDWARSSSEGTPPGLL
Assay: [3H]-bradykinin binding to guinea-pig ileum membranes
Conditions: test compound at 10^-6 M; [3H]-bradykinin 120 pM; 50 μg ileum membrane protein; 90 min at 20° C.; read-out: Activity (%): percentage inhibition of the binding of [3H]-bradykinin
Method: The following pharmacological test is used: Ileum segments are isolated from male guinea-pigs [of the Dunkin-Hartley strain (Iffa Credo, l'Arbresle, France)] and ground in the following TES buffer: TES 25 mM, 1,10-phenanthroline 1 mM (pH 6.8), bacitracin 140 μg/ml, BSA 1 g/l. The membranes are then isolated by centrifugation (18,000 rpm; 20 min; 4° C.). The binding studies are carried out in this TES buffer using [^3 H]-bradykinin (120 pM) and 50 μg of membrane protein per test (final volume 500 μl) with an equilibrium time of 90 min at 20° C. The percentage inhibition of the binding of [^3 H]-bradykinin is then determined in the presence of one of the test compounds according to the invention at a concentration of 10^-6 M.
The results obtained from these tests (shown as "activity") are collated in Table I below with reference to the Examples given in the description.

Cc1cc(C)c2cccc(OCc3c(Cl)ccc(S(=O)(=O)N4CCC[C@H]4C(=O)NCc4cccc(C(=N)N)c4)c3Cl)c2n1 [Example 2, 1-[[3-[(2,4-Dimethylquinolin-8-yl)oxymethyl]-2,4-dichlorophenyl]sulfonyl]-N-[3-(aminoiminomethyl)phenylmethyl]-2(S)-pyrrolidinecarboxamide dihydrochloride]
inhibition at 1 µM: 100%

Cc1cc(C)c2cccc(OCc3c(Cl)ccc(S(=O)(=O)N4CCC[C@H]4C(=O)N(C)Cc4ccc(C(=N)N)cc4)c3Cl)c2n1 [Example 4, 1-[[3-[(2,4-Dimethylquinolin-8-yl)oxymethyl]-2,4-dichlorophenyl]sulfonyl]-N-methyl-N-[4-(aminoiminomethyl)phenylmethyl]-2(S)-pyrrolidinecarboxamide dihydrochloride]
inhibition at 1 µM: 97.8%

Cc1cc(C)c2cccc(OCc3c(Cl)ccc(S(=O)(=O)N4CCC[C@H]4C(=O)NCc4ccc(C(=N)N)cc4)c3Cl)c2n1 [Example 6, 1-[[3-[(2,4-Dimethylquinolin-8-yl)oxymethyl]-2,4-dichlorophenyl]sulfonyl]-N-[4-(aminoiminomethyl)phenylmethyl]-2(S)-pyrrolidinecarboxamide bis(methanesulfonate)]
inhibition at 1 µM: 100%

Cc1ccc2cccc(OCc3c(Cl)ccc(S(=O)(=O)N4CCC[C@H]4C(=O)NCc4ccc(C(=N)N)cc4)c3Cl)c2n1 [Example 8, 1-[[3-[(2-Methylquinolin-8-yl)oxymethyl]-2,4-dichlorophenyl]sulfonyl]-N-[4-(aminoiminomethyl)phenylmethyl]-2(S)-pyrrolidinecarboxamide dihydrochloride]
inhibition at 1 µM: 96.6%

Cc1ccc2cccc(OCc3c(Cl)ccc(S(=O)(=O)N4CCC[C@H]4C(=O)Nc4cccc(C(=N)N)c4)c3Cl)c2n1 [Example 10, 1-[[3-[(2-Methylquinolin-8-yl)oxymethyl]-2,4-dichlorophenyl]sulfonyl]-N-[3-(aminoiminomethyl)phenyl]-2(S)-pyrrolidinecarboxamide dihydrochloride]
inhibition at 1 µM: 100%

Cc1cc(C)c2cccc(OCc3c(Cl)ccc(S(=O)(=O)N4CCC[C@H]4C(=O)N4CCN(C(=O)c5ccc(C(=N)N)cc5)CC4)c3Cl)c2n1 [Example 12, 1-[[3-[(2,4-Dimethylquinolin-8-yl)oxymethyl]-2,4-dichlorophenyl]sulfonyl]-2(S)-[[4-[4-(aminoiminomethyl)benzoyl]piperazin-1-yl]carbonyl]pyrrolidine dihydrochloride]
inhibition at 1 µM: 99.3%

Cc1cc(C)c2cccc(OCc3c(Cl)ccc(S(=O)(=O)N4CCC[C@H]4C(=O)N4CCN(C(=O)Cc5ccc(C(=N)N)cc5)CC4)c3Cl)c2n1 [Example 14, 1-[[3-[(2,4-Dimethylquinolin-8-yl)oxymethyl]-2,4-dichlorophenyl]sulfonyl]-(S)-[[4-[2-[4-(aminoiminomethyl)phenyl]-1-oxoethyl]piperazin-1-yl]carbonyl]pyrrolidine dihydrochloride]
inhibition at 1 µM: 100%

Cc1cc(C)c2cccc(OCc3c(Cl)ccc(S(=O)(=O)N4CCC[C@H]4C(=O)N4CCN(C(=O)COc5ccc(C(=N)N)cc5)CC4)c3Cl)c2n1 [Example 16, 1-[[3-[(2,4-Dimethylquinolin-8-yl)oxymethyl]-2,4-dichlorophenyl]sulfonyl]-2(S)-[[4-[2-[4-(aminoiminomethyl)phenoxyl]-1-oxoethyl]piperazin-1-yl]carbonyl]pyrrolidine dihydrochloride]
inhibition at 1 µM: 100%

Cc1ccc2cccc(OCc3c(Cl)ccc(S(=O)(=O)N4CCC[C@H]4C(=O)N4CCN(C(=O)c5ccc(C(=N)N)cc5)CC4)c3Cl)c2n1 [Example 18, 1-[[3-[(2-Methylquinolin-8-yl)oxymethyl]-2,4-dichlorophenyl]sulfonyl]-2(S)-[[4-[4-(aminoiminomethyl)benzoyl]piperazin-1-yl]carbonyl]pyrrolidine dihydrochloride]
inhibition at 1 µM: 100%

Cc1ccc2cccc(OCc3c(Cl)ccc(S(=O)(=O)N4CCC[C@H]4C(=O)N4CCN(C(=O)Cc5ccc(C(=N)N)cc5)CC4)c3Cl)c2n1 [Example 20, 1-[[3-[(2-Methylquinolin-8-yl)oxymethyl]-2,4-dichlorophenyl]sulfonyl]-2(S)-[[4-[2-[4-(aminoiminomethyl)phenyl-1-oxoethyl]piperazin-1-yl]carbonyl]pyrrolidinedihydrochloride]
inhibition at 1 µM: 100%

Cc1ccc2cccc(OCc3c(Cl)ccc(S(=O)(=O)N4CCC[C@H]4C(=O)N4CCN(C(=O)COc5ccc(C(=N)N)cc5)CC4)c3Cl)c2n1 [Example 22, 1-[[3-[(2-Dimethylquinolin-8-yl)oxymethyl]-2,4-dichlorophenyl]sulfonyl]-2(S)-[4-[2-[4-(aminoiminomethyl)phenoxyl-1-oxoethyl]piperazin-1-yl]carbonyl]pyrrolidine dihydrochloride]
inhibition at 1 µM: 100%

Cc1ccc2cccc(OCc3c(Cl)ccc(S(=O)(=O)N4CCC[C@H]4C(=O)NC4CCN(C(=O)c5ccc(C(=N)N)cc5)CC4)c3Cl)c2n1 [Example 24]
inhibition at 1 µM: 98.9%

Cc1cc(C)c2cccc(OCc3c(Cl)ccc(S(=O)(=O)N4CCC[C@H]4C(=O)NC4CCN(C(=O)c5ccc(C(=N)N)cc5)CC4)c3Cl)c2n1 [Example 26, 1-[[3-[(2,4-Dimethylquinolin-8-yl)oxymethyl]-2,4-dichlorophenyl]sulfonyl]-N-[1-[4-(aminoiminomethyl)benzoyl]piperidin-4-yl]-2(S)-pyrrolidinecarboxamide bis(methanesulfonate)]
inhibition at 1 µM: 100%

Cc1cc(C)c2cccc(OCc3c(Cl)ccc(S(=O)(=O)N4CCC[C@H]4C(=O)NC4CCN(C(=O)COc5ccc(C(=N)N)cc5)CC4)c3Cl)c2n1 [Example 28]
inhibition at 1 µM: 98%

Cc1cc(C)c2cccc(OCc3c(Cl)ccc(S(=O)(=O)N4CCC[C@H]4C(=O)NCC4CCN(C(=O)COc5ccc(C(=N)N)cc5)CC4)c3Cl)c2n1 [Example 30, 1-[[3-[(2,4-Dimethylquinolin-8-yl)oxymethyl]-2,4-dichlorophenyl]sulfonyl]-N-[[1-[2-[4-(aminoiminomethyl)phenoxy]-1-oxoethyl]piperidin-4-yl]methyl]-2(S)-pyrrolidinecarboxamide bis(methanesulfonate)]
inhibition at 1 µM: 99.3%
